Data as given in US12304890B2, “R-type pyridyloxycarboxylic acid, salt and ester derivative thereof, and preparation method therefor, and herbicidal composition and application thereof” (Qingdao Kingagroot Chemical Compound Co., Ltd., priority 2018, dated 2025).

Experiments:
Format in all cases: in vivo
[1] = system: Echinochloa crusgalli; experiment: Post-emergence test experiment, Echinochloa crusgalli; settings: for Activity level (growth inhibition rate), Echinochloa crusgalli: 1000 g a.i./ha, 3 weeks in greenhouse, fresh weight inhibition
Outline: (§1)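 Seeds sown under 0.5-2 cm soil; sprayed post-emergence at 2-3 leaves with acetone/tween-80 solution plus 1.5 L/ha methyl oleate EC; greenhouse 3 wk; % fresh weight inhibition.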

[2] = system: Digitaria sanguinalis; experiment: Post-emergence test experiment, Digitaria sanguinalis; settings: for Activity level (growth inhibition rate), Digitaria sanguinalis: 1000 g a.i./ha, 3 weeks in greenhouse, fresh weight inhibition
Outline: as §1

[3] = system: Semen Euphorbiae Lathyridis; experiment: Post-emergence test experiment, Semen Euphorbiae Lathyridis; settings: 3 weeks
Outline: as §1

[4] = system: rice; experiment: Post-emergence test experiment, rice (crop selectivity); settings: 3 weeks
Outline: as §1

[5] = system: Monocotyledonous and dicotyledonous weed seeds and main crop seeds; experiment: Post-emergence test experiment, other weeds and crops (Table 4, 1000 g a.i./ha); settings: 3 weeks in greenhouse, fresh weight inhibition
Outline: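 Growth inhibition is scored on fresh weight. Spray solutions were made in acetone with tween-80, diluted in water, plus 1.5 L/ha methyl oleate emulsible concentrate. Plants from greenhouse-grown weed and crop seeds were treated post-emergence at 2-3 leaves, 2 weeks after sowing.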

[6] = system: rice (japonica rice); experiment: Transplanted rice safety evaluation; settings: transplanted 3-leaf japonica rice, 1000 g a.i./ha, 21 days after treatment
Description: In addition, the rice field soil that loaded into the 1/1,000,000 ha pot was leveled to keep water storage at 3-4 cm depth. The 3-leaf stage rice (japonica rice) was transplanted at 3 cm of transplanting depth the next day. The compound of the present invention was treated by the same way after 5 days of transplantation.
(§2) The fertility condition of Monochoria vaginalis 14 days and rice 21 days after the treatment of the compound of the invention with the naked eye.

[7] = system: Monochoria vaginalis; experiment: Weed control effect evaluation in rice field; settings: paddy pot, 0.5 leaf stage, 14 days, weed resistant to pyrazosulfuron-ethyl and penoxsulam
Description: Rice field soil was loaded into a 1/1,000,000 ha pot. The seeds of Monochoria vaginalis were sowed and gently covered with soil, then left to stand still in greenhouse in the state of 0.5-1 cm of water storage. It was kept at 3-4 cm of water storage thereafter. The weeds were treated by dripping the WP or SC water diluents prepared according to the common preparation method of the compounds of the present invention with pipette homogeneously to achieve specified effective amount when Monochoria vaginalis reached 0.5 leaf stage.
as §2

[8] = 200 g a.i./ha, 3 weeks, weed resistant to ALS inhibitor and ACCe herbicides
[9] = 200 g a.i./ha, 3 weeks, weed resistant to cyhalofop-butyl
[10] = 200 g a.i./ha, weed resistant to cyhalofop-butyl
[11] = 400 g a.i./ha, 3 weeks, resistant weed

Compound | Echinochloa crusgalli, activity level (growth inhibition rate) [1, 8] | Activity level (growth inhibition rate), Echinochloa crusgalli [1] | Digitaria sanguinalis, activity level (growth inhibition rate) [2, 9] | Activity level (growth inhibition rate), Digitaria sanguinalis [2] | Semen Euphorbiae Lathyridis, activity level (growth inhibition rate) [3, 10] | rice, activity level (growth inhibition rate) ([4]; 200 g a.i./ha) | Activity level (growth inhibition rate), Abutilon theophrasti Medic. [5] | Activity level (growth inhibition rate), Galium aparine [5] | Activity level (growth inhibition rate), Monochoria Vaginalis [5] | rice, safety level 0-5 [6] | Monochoria Vaginalis, activity level 0-5 ([7]; 1000 g a.i./ha) | inhibition at 200 g/ha ([1]; Echinochloa crus-galli, 504 h, 200 g a.i./ha, 3 weeks, weed resistant to ALS inhibitor and ACCe herbicides, read-out: Echinochloa crusgalli, activity level (growth inhibition rate)) | inhibition at 200 g/ha ([2]; Digitaria sanguinalis, 504 h, 200 g a.i./ha, 3 weeks, weed resistant to cyhalofop-butyl, read-out: Digitaria sanguinalis, activity level (growth inhibition rate)) | inhibition at 200 g/ha ([3]; 504 h, 200 g a.i./ha, weed resistant to cyhalofop-butyl, read-out: Semen Euphorbiae Lathyridis, activity level (growth inhibition rate)) | Echinochloa crusgalli, activity level (growth inhibition rate) [1, 11] | Digitaria sanguinalis, activity level (growth inhibition rate) [2, 11] | Semen Euphorbiae Lathyridis, activity level (growth inhibition rate) ([3]; 400 g a.i./ha, resistant weed) | rice, activity level (growth inhibition rate) ([4]; 400 g a.i./ha) | Monochoria Vaginalis, activity level 0-5 ([7]; 50 g a.i./ha)
CCOC(=O)COC(=O)C(C)Oc1nc(F)c(Cl)c(N)c1Cl (stereo not drawn) [Compound 2-294] | 5 (Level 5: the growth inhibition rate is greater than 85%) | 5 (Level 5: the growth inhibition rate is greater than 85%) | 5 (Level 5: the growth inhibition rate is greater than 85%) | 5 (Level 5: the growth inhibition rate is greater than 85%) | 5 (Level 5: the growth inhibition rate is greater than 85%) | 0 (Level 0: the growth inhibition rate is less than 5%) | 5 (Level 5: the growth inhibition rate is greater than 85%) | 5 (Level 5: the growth inhibition rate is greater than 85%) | 5 (Level 5: the growth inhibition rate is greater than 85%) | 0 (Level 0: the growth inhibition rate is less than 5%) | 5 (Level 5: the growth inhibition rate is greater than 85%) |  |  |  |  |  |  |  | 
C[C@@H](Oc1nc(F)c(Cl)c(N)c1Cl)C(=O)SCc1ccc(Cl)cc1 [Compound 2-319] |  | 5 (Level 5: the growth inhibition rate is greater than 85%) |  | 5 (Level 5: the growth inhibition rate is greater than 85%) |  | 0 (Level 0: the growth inhibition rate is less than 5%) | 5 (Level 5: the growth inhibition rate is greater than 85%) | 5 (Level 5: the growth inhibition rate is greater than 85%) | 5 (Level 5: the growth inhibition rate is greater than 85%) | 0 (Level 0: the growth inhibition rate is less than 5%) | 5 (Level 5: the growth inhibition rate is greater than 85%) | > 85% | > 85% | > 85% |  |  |  |  | 
C[C@@H](Oc1nc(F)c(Cl)c(N)c1Cl)C(=O)SCc1ccccn1 [Compound 2-343] | 5 (Level 5: the growth inhibition rate is greater than 85%) | 5 (Level 5: the growth inhibition rate is greater than 85%) | 5 (Level 5: the growth inhibition rate is greater than 85%) | 5 (Level 5: the growth inhibition rate is greater than 85%) | 5 (Level 5: the growth inhibition rate is greater than 85%) | 0 (Level 0: the growth inhibition rate is less than 5%) | 5 (Level 5: the growth inhibition rate is greater than 85%) | 5 (Level 5: the growth inhibition rate is greater than 85%) | 5 (Level 5: the growth inhibition rate is greater than 85%) | 0 (Level 0: the growth inhibition rate is less than 5%) | 5 (Level 5: the growth inhibition rate is greater than 85%) |  |  |  |  |  |  |  | 
CCOC(=O)[C@@H](C)Oc1nc(F)c(Cl)c(N)c1Cl [Compound 2-71] | 5 (Level 5: the growth inhibition rate is greater than 85%) | 5 (Level 5: the growth inhibition rate is greater than 85%) | 5 (Level 5: the growth inhibition rate is greater than 85%) | 5 (Level 5: the growth inhibition rate is greater than 85%) | 5 (Level 5: the growth inhibition rate is greater than 85%) | 0 (Level 0: the growth inhibition rate is less than 5%) | 5 (Level 5: the growth inhibition rate is greater than 85%) | 5 (Level 5: the growth inhibition rate is greater than 85%) | 5 (Level 5: the growth inhibition rate is greater than 85%) | 0 (Level 0: the growth inhibition rate is less than 5%) | 5 (Level 5: the growth inhibition rate is greater than 85%) |  |  |  | 5 (Level 5: the growth inhibition rate is greater than 85%) | 5 (Level 5: the growth inhibition rate is greater than 85%) | 5 (Level 5: the growth inhibition rate is greater than 85%) | 2 (Level 2: the growth inhibition rate is equal to or greater than 20% and less than 40%) | 
CSC(=O)[C@@H](C)Oc1nc(F)c(Cl)c(N)c1Cl [Compound 2-70] | 5 (Level 5: the growth inhibition rate is greater than 85%) | 5 (Level 5: the growth inhibition rate is greater than 85%) | 5 (Level 5: the growth inhibition rate is greater than 85%) | 5 (Level 5: the growth inhibition rate is greater than 85%) | 5 (Level 5: the growth inhibition rate is greater than 85%) | 0 (Level 0: the growth inhibition rate is less than 5%) | 5 (Level 5: the growth inhibition rate is greater than 85%) | 5 (Level 5: the growth inhibition rate is greater than 85%) | 5 (Level 5: the growth inhibition rate is greater than 85%) | 0 (Level 0: the growth inhibition rate is less than 5%) | 5 (Level 5: the growth inhibition rate is greater than 85%) |  |  |  |  |  |  |  | 
COc1cnc(OC)n2nc(NS(=O)(=O)c3c(OCC(F)F)cccc3C(F)(F)F)nc12 [penoxsulam, reference compound] |  |  |  |  |  |  |  |  |  |  |  |  |  |  |  |  |  |  | 1 (Level 1: the growth inhibition rate is equal to or greater than 5% and less than 20%)
CCCCCCCCCCOC(=O)[C@@H](C)Oc1nc(F)c(Cl)c(N)c1Cl [Compound 2-195] | 4 (Level 4: the growth inhibition rate is equal to or greater than 60% and less than 85%) | 5 (Level 5: the growth inhibition rate is greater than 85%) | 5 (Level 5: the growth inhibition rate is greater than 85%) | 5 (Level 5: the growth inhibition rate is greater than 85%) | 5 (Level 5: the growth inhibition rate is greater than 85%) | 0 (Level 0: the growth inhibition rate is less than 5%) | 5 (Level 5: the growth inhibition rate is greater than 85%) | 5 (Level 5: the growth inhibition rate is greater than 85%) | 5 (Level 5: the growth inhibition rate is greater than 85%) |  |  |  |  |  |  |  |  |  | 
